Test results as given in patent publication US20050123613A1, “Activated carbon infusion solution, preparation method therefor and use thereof for the manufacture of drug for treating cancer” (priority 2003, published 2005).

What was measured:
[1] = Measured adsorption values of drugs on activated carbon; format: physicochemical; conditions: specific surface area 6800M^2/g
[2] = Measured adsorption values of drugs on hydroxyl-amino carbon; format: physicochemical; conditions: specific surface area 6800M^2/g
cancer patients = experiment: Experimental clinical cases, intravenous injection; format: in vivo, human; conditions: Case 4, breast cancer with systematic metastasis, before activated carbon treatment

Molecule	Adsorption value on activated carbon [1] [mg]	Adsorption value on hydroxyl-amino carbon [2] [mg]	Analgesia (cancer patients)
Nc1ncnc2nc[nH]c12 [adenine]	213	260	–
Nc1nc2nc[nH]c2c(=O)[nH]1 [guanine]	331	378	–
ferroporphyrin	283	311	–
S=c1nc[nH]c2nc[nH]c12 [Example 6-MP, 6-MP, reference compound]	220	304	–
N.N.[Cl][Pt][Cl] [cisplatin, reference compound]	995	1105	–
Cc1c[nH]c(=O)[nH]c1=O [thymine]	5	17	–
thymopeptide	90	127	–
O=c1[nH]cc(F)c(=O)[nH]1 [5-fluorouracil, reference compound]	–	49	–
O=c1[nH]cc(Cl)c(=O)[nH]1 [5-chlorouracil]	75	102	–
ClC(Cl)Cl [chloroform]	10	4	–
O=c1cc[nH]c(=O)[nH]1 [uracil]	33	51	–
CN1CC[C@]23c4c5ccc(O)c4O[C@H]2[C@@H](O)C=C[C@H]3[C@H]1C5 [Morphine]	–	–	of no effect
O=P1(N(CCCl)CCCl)NCCCO1 (stereo not drawn) [CTX, reference compound]	98	136	–
